As usually defined, the IC50 is the concentration needed to halve the response being measured.

SMILES strings stand for the structures. The source made the active and inactive calls. The calls are words filed in the database; no cut-off is given here. Some results are limits rather than exact numbers.

The values below come from ChEMBL document CHEMBL3044801, “Synthesis and antiprotozoal activity of 1,2,3,4-tetrahydro-2-thioxopyrimidine analogs of combretastatin A-4” (Med Chem Res, 2011).

Series [1] concerns Leishmania tarentolae. The series can be described thus: Antiprotozoan activity against Leishmania tarentolae after 72 hr by MTT assay. The class given is functional, organism-based. For orientation: Tetrazolium dyes change colour on reduction, which living cells bring about.
The test system of series [2] is Trypanosoma lewisi. The series can be described thus: Antiprotozoan activity against Trypanosoma lewisi after 72 hr by MTT assay. The class given is functional, organism-based.
Series [3] has as its system Giardia intestinalis. The series can be described thus: Antiprotozoan activity against Giardia intestinalis after 72 hr by MTT assay. The class given is functional, organism-based. The conditions noted are these: Giardia duodenalis.
Series [4] relates to B16. Nature of the series: Cytotoxicity against Mus musculus (mouse) B16 cells after 72 hr by MTT assay. The class given is cell-based. The conditions noted are these: B16, 72 h.
Series [5] deals with Plasmodium falciparum. The series can be described thus: Antiprotozoan activity against Plasmodium falciparum assessed as inhibition of [3H]hypoxanthine incorporation incubated for 24 hr prior to [3H]hypoxanthine addition measured after 18 hr by liquid scintillation counting. The class given is functional, organism-based.
Series [6] relates to L1210. The series can be described thus: Cytotoxicity against Mus musculus (mouse) L1210 cells after 72 hr by MTT assay. Format: cell-based. Particulars: L1210, 72 h.
Series [7] relates to Giardia intestinalis. The series can be described thus: Antiprotozoan activity against Giardia intestinalis assessed as decrease in viability at 12.1 to 21.5 uM after 72 hr by microscopic analysis. Particulars: Giardia duodenalis. Format: functional, organism-based.
Series [8] can be described thus: Selectivity index, ratio of IC50 for mouse L1210 cells to IC50 for Trypanosoma lewisi. Format: toxicity, cell-based. The conditions noted are these: L1210 cells versus Trypanosoma lewisi, read-out: Ratio IC50.
A short description of series [9]: Selectivity index, ratio of IC50 for mouse B16 cells to IC50 for Trypanosoma lewisi. The class given is toxicity, cell-based. The conditions noted are these: B16 cells versus Trypanosoma lewisi, read-out: Ratio IC50.
The nature of series [10]: Selectivity index, ratio of IC50 for mouse L1210 cells to IC50 for Giardia lamblia.
The nature of series [11]: Selectivity index, ratio of IC50 for mouse B16 cells to IC50 for Leishmania tarentolae. The class given is toxicity, cell-based. Particulars: B16 cells versus Leishmania tarentolae, read-out: Ratio IC50.
A short description of series [12]: Selectivity index, ratio of IC50 for mouse L1210 cells to IC50 for Leishmania tarentolae. Format: toxicity, cell-based. Particulars: L1210 cells versus Leishmania tarentolae, read-out: Ratio IC50.
Series [13] is described as follows: Selectivity index, ratio of IC50 for mouse B16 cells to IC50 for Giardia lamblia.

For `COc1ccc(OC)c(C2C=C(c3cc(OC)c(OC)c(OC)c3)NC(=S)N2)c1` (stereo not drawn), the IC50 in series [1] was found to be 30.3 µM; in series [2], 48.4 µM; in series [3], 23.5 µM.

As for `COc1cc(C2=CC(c3cc(OC)c(OC)c(OC)c3)NC(=S)N2)cc(OC)c1OC` (stereo not drawn), the results for the IC50 in series [1], in [2] and in series [3] were 46.6 µM, 29.3 µM and 24.8 µM, respectively.

`COc1ccc(OC)c(C2=CC(c3cc(OC)ccc3OC)NC(=S)N2)c1` (stereo not drawn): the IC50 is 18 µM in [1]; greater than 100 µM in series [4]; 27.9 µM in [5]; greater than 100 µM in series [6]; 27.3 µM in series [2]; greater than 100 µM in [3].

For the compound `COc1ccc(C2C=C(c3cc(OC)c(OC)c(OC)c3)NC(=S)N2)cc1O` (stereo not drawn), the IC50 was found to be 12.1 µM in series [1], 49.2 µM in [2] and 21.5 µM in series [3]. The outcome in series [7] was Active.

For `COc1ccc(C2C=C(c3cc(OC)c(OC)c(OC)c3)NC(=S)N2)cc1[N+](=O)[O-]` (stereo not drawn), the IC50 in series [1] was 12.5 µM; in series [2] it was 39.5 µM; in series [3] it was 24.3 µM. The selectivity ratio in series [8] stood at 2; in series [9] it was 2; in series [11] it was 8; in series [12] it was 8. The “Ratio IC50” value in series [10] and in [13] was 4 each time.

`COc1ccc(C2C=C(c3cc(OC)ccc3OC)NC(=S)N2)cc1` (stereo not drawn): the IC50 was 11.4 µM in series [1]; 80 µM in series [4]; 69.4 µM in [5]; 87 µM in series [6]; 16.5 µM in series [2]; greater than 100 µM in series [3].

Regarding `COc1ccc(C2=CC(c3ccc(OC)c(OC)c3)NC(S)=N2)cc1` (stereo not drawn), the IC50 was 27.2 µM in series [1]; greater than 100 µM in series [4]; 31 µM in series [5]; greater than 100 µM in series [6]; 25.8 µM in series [2]; greater than 100 µM in series [3].

Take `COc1ccc(C2C=C(c3cc(OC)c(OC)c(OC)c3)NC(=S)N2)cc1OC` (stereo not drawn): the IC50 in [1] is 36.4 µM; in [2], 52.1 µM; in series [3] it was 22.7 µM.

As for `COc1cc(C2=CC(c3ccc([N+](=O)[O-])cc3)NC(=S)N2)cc(OC)c1OC` (stereo not drawn), the values for the IC50 in series [1], in [2] and in [3] were 13.7 µM, 50 µM and 21 µM, respectively. The selectivity ratio stood at 2 in series [8], 2 in series [9], 8 in [11] and 8 in series [12]. The “Ratio IC50” value in series [10] and in series [13] was 4 each time.

Regarding `COc1cc(OC)c(C2C=C(c3cc(OC)ccc3OC)NC(=S)N2)c(OC)c1` (stereo not drawn), the IC50 in series [1] stood at 10.4 µM; in [5], 17.3 µM; in series [2], 25 µM; in series [3], 33.8 µM.

Take `COc1ccc(C2C=C(c3cc(OC)c(OC)c(OC)c3)NC(=S)N2)cc1` (stereo not drawn): the IC50 in series [1] was 12.5 µM; in series [4], 36 µM; in series [5], 14.5 µM; in [6], 41 µM; in series [2], 17.9 µM; in series [3], 22.3 µM.

Take `COc1ccc(OC)c(C2=CC(c3ccc(OC)c([N+](=O)[O-])c3)NC(=S)N2)c1` (stereo not drawn): the IC50 in series [1] came out at 21.1 µM; in [2] it was 33.3 µM; in [3], 57.8 µM.

As to `COc1cc(OC)c(C2C=C(c3cc(OC)c(OC)c(OC)c3)NC(=S)N2)c(OC)c1` (stereo not drawn), the IC50 was determined as 46.6 µM in [1], 29.6 µM in [2] and 20.3 µM in series [3].

For `COc1cc(C2=CC(c3ccc(Cl)cc3)NC(=S)N2)cc(OC)c1OC` (stereo not drawn), the IC50 in series [1] is 10.2 µM; in [2], 27 µM; in series [3] it was 46.7 µM.

`COc1ccc(C2=CC(c3c(OC)cc(OC)cc3OC)NC(=S)N2)cc1` (stereo not drawn): the IC50 is 25.1 µM in series [1]; 25 µM in series [4]; 14.6 µM in series [5]; 85 µM in [6]; 13.4 µM in series [2]; greater than 100 µM in series [3].

In the case of `COc1ccc(OC)c(C2=CC(c3cc(OC)c(OC)c(OC)c3)NC(=S)N2)c1` (stereo not drawn), the IC50 in [1] is 16.8 µM; in series [4], 0.5 µM; in series [5], 13.3 µM; in series [6] it was 6 µM; in series [2], 15.7 µM; in series [3], greater than 100 µM.

`COc1ccc(C2=CC(c3ccc(OC)cc3)NC(=S)N2)cc1` (stereo not drawn): the IC50 in series [1] is 17.8 µM; in series [4] it was greater than 100 µM; in series [5] it was 25 µM; in series [6], greater than 100 µM; in [2] it was 15.2 µM.

For `COc1cccc(C2C=C(c3cc(OC)c(OC)c(OC)c3)NC(=S)N2)c1` (stereo not drawn), the values for the IC50 in [1], in [2] and in series [3] were 19.4 µM, 24.3 µM and 40.4 µM, respectively.
